Source: patent US20200069617A1, “USE OF N-ACETYLCYSTEINE AMIDE IN THE TREATMENT OF ACETAMINOPHEN OVERDOSE” (priority 2015, published 2020)

Key:
[1] = system: APAP-induced hepatotoxicity; test: Protective effects in APAP-induced hepatotoxicity (oxidative stress and organ injury markers); format: in vivo, C57BL/6 mice
Protocol: Studies were then performed to evaluate the protective effects of NACA in APAP-induced hepatotoxicity using male C57BL/6 mice that were intraperitoneally injected with 400 mg/kg of APAP after 15 hours of fasting. The therapeutic potentials of NAC and NACA were compared by administering NAC/NACA (106 mg/kg) after 1.5 hours of APAP administration and sacrificing the mice 4 hours after the APAP administration. The GSH/GSSG ratio, a crucial antioxidant parameter, and malondialdehyde (MDA) levels were measured in liver tissue.
Alanine aminotransferase (ALT) and glutamate dehydrogenase levels were also measured in serum (FIG. 3). These are markers of livery injury.

APAP overdose = test: Survival of mice after APAP overdose; format: in vivo, C57 BL/6 mice; details: FIG. 10
Protocol: Studies were then performed where C57 BL/6 mice received APAP overdose of 500 mg/kg. NACA or NAC was administered (106 mg/kg) 1.5 hours post APAP and at every 12 hours thereafter until 72 hours. The APAP group had 6 mice and the NAC and NACA groups contained 4. Mice treated with NACA/APAP survived for 150 hours, while mice treated with APAP or NAC/APAP had 60% and 30% survival respectively (FIG. 10).

SMILES	oxidative stress in a number of tissues ([1]; APAP administration)	liver injury (serum ALT and glutamate dehydrogenase levels) ([1]; APAP alone, FIG. 3)	blood urea nitrogen (BUN) ([1]; APAP alone, FIG. 9)	serum creatine kinase (CK) ([1]; APAP alone, FIG. 9)	survival (APAP overdose; APAP overdose of 500 mg/kg alone) [%]	survival (APAP overdose; APAP 500 mg/kg, 106 mg/kg 1.5 hours post APAP and every 12 hours until 72 hours) [%]
CC(=O)Nc1ccc(O)cc1 [APAP, N-acetyl-p-aminophenol]	increases	causes liver injury	increases	increases	60	–
CC(=O)N[C@@H](CS)C(=O)O [NAC, N-acetylcysteine]	–	–	–	–	–	30
